Our source for the TGI values is PubChem BioAssay (NCI).

Among the test systems are OVCAR-4 ovarian; RXF 393 renal; IGROV1 ovarian; CAKI-1 renal; HCT-116 colon; MALME-3M melanoma; KM12 colon; MDA-N; UACC-62 melanoma; SF-268 CNS; UO-31 renal; MDA-MB-231 breast; NCI-H460 lung; MDA-MB-435; OVCAR-5 ovarian.
What all share (assay): NCI-60 cell line screen, 48 h

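Five concentrations, 48 hours, 96-well plates. TGI: total growth inhibition.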

As to `O=C(OC1C2OC(=O)c3cc(O)c(O)c(O)c3Oc3cc4c(c(O)c3O)-c3c(cc(O)c(O)c3O)C(=O)OCC3OC(O)C(OC(=O)c5cc(O)c(O)c(O)c5Oc5cc6c(c(O)c5O)-c5c(cc(O)c(O)c5O)C(=O)OC1C(COC6=O)OC2O)C(OC(=O)c1cc(O)c(O)c(O)c1)C3OC4=O)c1cc(O)c(O)c(O)c1` (stereo not drawn), the TGI in the assay on OVCAR-4 ovarian was 47.8 µM; in the assay with RXF 393 renal, 52.5 µM; with IGROV1 ovarian, more than 100 µM; in the assay on CAKI-1 renal it was more than 100 µM; in the assay on HCT-116 colon it was 57.2 µM; in the assay with MALME-3M melanoma it was more than 100 µM. Also, the TGI was 16.2 µM with KM12 colon; 46.6 µM with MDA-N; 68.5 µM in the assay on UACC-62 melanoma; more than 100 µM with SF-268 CNS; more than 100 µM with UO-31 renal; 68.4 µM with MDA-MB-231 breast. For the same compound, the TGI was 14.3 µM with NCI-H460 lung, 42.6 µM in the assay on MDA-MB-435 and more than 100 µM in the assay on OVCAR-5 ovarian.

As for `COc1cc2c(cc1OC)C(=O)N(c1ccc(O)cc1)C2=O`, the TGI in the assay with OVCAR-4 ovarian, in the assay with RXF 393 renal, in the assay with IGROV1 ovarian, in the assay on CAKI-1 renal, in the assay with HCT-116 colon and in the assay on MALME-3M melanoma was more than 100 µM in each case. Besides, the TGI with MDA-N, in the assay with UACC-62 melanoma, in the assay on SF-268 CNS, in the assay on MDA-MB-231 breast, in the assay on NCI-H460 lung and in the assay with MDA-MB-435 was more than 100 µM in each case. The TGI in the assay with OVCAR-5 ovarian is more than 100 µM.

Consider `COc1ccc(C2OC(=O)c3ccc4ccccc4c32)c(C)c1` (stereo not drawn), for which the TGI in the assay on OVCAR-4 ovarian is more than 100 µM; with RXF 393 renal it was more than 65.9 µM; in the assay on IGROV1 ovarian, more than 67.8 µM; in the assay with CAKI-1 renal it was more than 100 µM; in the assay on HCT-116 colon, more than 45.7 µM; with MALME-3M melanoma it was more than 100 µM. For the same compound, the TGI with KM12 colon was more than 45.6 µM; in the assay on MDA-N, 4.28 µM; in the assay with UACC-62 melanoma, more than 100 µM; in the assay on SF-268 CNS, more than 100 µM; in the assay with UO-31 renal it was more than 83.8 µM; with MDA-MB-231 breast it was more than 100 µM. In addition, the TGI is more than 54.3 µM in the assay on NCI-H460 lung, 6.02 µM in the assay with MDA-MB-435 and more than 100 µM in the assay with OVCAR-5 ovarian.

On to `Cc1ccc(/C=N/n2c(-c3ccc(C)cc3)n[nH]c2=O)cc1`, for which the TGI in the assay on OVCAR-4 ovarian was more than 100 µM; in the assay on RXF 393 renal it was 72.9 µM; with IGROV1 ovarian it was more than 100 µM; in the assay on CAKI-1 renal, more than 100 µM; in the assay on HCT-116 colon it was more than 100 µM; in the assay with MALME-3M melanoma, more than 100 µM. Moreover, the TGI in the assay on KM12 colon, with MDA-N, with UACC-62 melanoma, with SF-268 CNS, with UO-31 renal and in the assay on MDA-MB-231 breast was more than 100 µM in each case. The TGI with NCI-H460 lung, in the assay on MDA-MB-435 and in the assay on OVCAR-5 ovarian was more than 100 µM each time.

`O=C(/C=C/c1cccc(Oc2ccccc2)c1)NCc1ccc(C(=O)NCc2ccccc2)cc1`: the TGI in the assay on OVCAR-4 ovarian is more than 100 µM; with RXF 393 renal, 41 µM; in the assay on IGROV1 ovarian it was more than 100 µM; with CAKI-1 renal, more than 100 µM; in the assay on HCT-116 colon, more than 100 µM; in the assay on MALME-3M melanoma, more than 100 µM. Also, the TGI in the assay with KM12 colon, with MDA-N, in the assay on UACC-62 melanoma, in the assay with SF-268 CNS, with UO-31 renal and in the assay with MDA-MB-231 breast was more than 100 µM each time. The TGI in the assay with NCI-H460 lung, in the assay on MDA-MB-435 and in the assay with OVCAR-5 ovarian was more than 100 µM each time.

For the compound `CC(NC(=O)NC(C)(C)C)NC(=O)C(N)CC(=O)O` (stereo not drawn), the TGI in the assay with OVCAR-4 ovarian, in the assay with RXF 393 renal, with IGROV1 ovarian, in the assay with CAKI-1 renal, in the assay on HCT-116 colon and in the assay with MALME-3M melanoma was more than 100 µM each time. In addition, the TGI in the assay with KM12 colon, in the assay with MDA-N, in the assay with UACC-62 melanoma, with SF-268 CNS, with UO-31 renal and in the assay on MDA-MB-231 breast was more than 100 µM throughout. Also, the TGI in the assay with NCI-H460 lung, with MDA-MB-435 and in the assay on OVCAR-5 ovarian was more than 100 µM each time.

Consider `O=C1C(Br)=C(c2ccccc2)O/C1=C/C(=O)c1ccc(Br)cc1`, for which the TGI in the assay with OVCAR-4 ovarian is more than 100 µM; with RXF 393 renal it was 46.9 µM; in the assay with IGROV1 ovarian it was more than 100 µM; with CAKI-1 renal, 35 µM; with HCT-116 colon it was more than 100 µM; in the assay on MALME-3M melanoma, more than 100 µM. Besides, the TGI with KM12 colon, in the assay with MDA-N, in the assay with UACC-62 melanoma, with SF-268 CNS, with UO-31 renal and with MDA-MB-231 breast was more than 100 µM throughout. The TGI in the assay with NCI-H460 lung, with MDA-MB-435 and in the assay on OVCAR-5 ovarian was more than 100 µM in each case.

Turning to `O=C(O)C(O)C(O)C(=O)O` (stereo not drawn), the TGI in the assay with OVCAR-4 ovarian, with RXF 393 renal, in the assay with IGROV1 ovarian, with CAKI-1 renal, with HCT-116 colon and with MALME-3M melanoma was more than 100 µM throughout. The TGI in the assay on KM12 colon, in the assay with MDA-N, with UACC-62 melanoma, in the assay on SF-268 CNS, in the assay on UO-31 renal and with MDA-MB-231 breast was more than 100 µM throughout. The TGI in the assay with NCI-H460 lung, in the assay with MDA-MB-435 and in the assay with OVCAR-5 ovarian was more than 100 µM each time.

Consider `O=S(=O)(Nc1nc2ccccc2nc1Nc1ccc2ccccc2c1)c1ccccc1`, for which the TGI in the assay on OVCAR-4 ovarian was more than 44.9 µM; in the assay on RXF 393 renal it was 86.1 µM; in the assay with IGROV1 ovarian it was more than 57.9 µM; with CAKI-1 renal, 99 µM; in the assay on HCT-116 colon, 24.8 µM; with MALME-3M melanoma, more than 100 µM. The TGI in the assay on KM12 colon is more than 59.3 µM; in the assay with MDA-N, more than 100 µM; in the assay on UACC-62 melanoma, 43.8 µM; in the assay on SF-268 CNS, more than 67.7 µM; in the assay on UO-31 renal it was 39.5 µM; with MDA-MB-231 breast, more than 100 µM. Further, the TGI is 28.8 µM with NCI-H460 lung, more than 100 µM with MDA-MB-435 and 81.2 µM in the assay with OVCAR-5 ovarian.
